Results on 25 compounds are retold here after patent US20240025884A1 (Dong-A ST Co., Ltd., priority 2022, published 2024).

Chain of GCN2 (Q9P2K8 whole entry): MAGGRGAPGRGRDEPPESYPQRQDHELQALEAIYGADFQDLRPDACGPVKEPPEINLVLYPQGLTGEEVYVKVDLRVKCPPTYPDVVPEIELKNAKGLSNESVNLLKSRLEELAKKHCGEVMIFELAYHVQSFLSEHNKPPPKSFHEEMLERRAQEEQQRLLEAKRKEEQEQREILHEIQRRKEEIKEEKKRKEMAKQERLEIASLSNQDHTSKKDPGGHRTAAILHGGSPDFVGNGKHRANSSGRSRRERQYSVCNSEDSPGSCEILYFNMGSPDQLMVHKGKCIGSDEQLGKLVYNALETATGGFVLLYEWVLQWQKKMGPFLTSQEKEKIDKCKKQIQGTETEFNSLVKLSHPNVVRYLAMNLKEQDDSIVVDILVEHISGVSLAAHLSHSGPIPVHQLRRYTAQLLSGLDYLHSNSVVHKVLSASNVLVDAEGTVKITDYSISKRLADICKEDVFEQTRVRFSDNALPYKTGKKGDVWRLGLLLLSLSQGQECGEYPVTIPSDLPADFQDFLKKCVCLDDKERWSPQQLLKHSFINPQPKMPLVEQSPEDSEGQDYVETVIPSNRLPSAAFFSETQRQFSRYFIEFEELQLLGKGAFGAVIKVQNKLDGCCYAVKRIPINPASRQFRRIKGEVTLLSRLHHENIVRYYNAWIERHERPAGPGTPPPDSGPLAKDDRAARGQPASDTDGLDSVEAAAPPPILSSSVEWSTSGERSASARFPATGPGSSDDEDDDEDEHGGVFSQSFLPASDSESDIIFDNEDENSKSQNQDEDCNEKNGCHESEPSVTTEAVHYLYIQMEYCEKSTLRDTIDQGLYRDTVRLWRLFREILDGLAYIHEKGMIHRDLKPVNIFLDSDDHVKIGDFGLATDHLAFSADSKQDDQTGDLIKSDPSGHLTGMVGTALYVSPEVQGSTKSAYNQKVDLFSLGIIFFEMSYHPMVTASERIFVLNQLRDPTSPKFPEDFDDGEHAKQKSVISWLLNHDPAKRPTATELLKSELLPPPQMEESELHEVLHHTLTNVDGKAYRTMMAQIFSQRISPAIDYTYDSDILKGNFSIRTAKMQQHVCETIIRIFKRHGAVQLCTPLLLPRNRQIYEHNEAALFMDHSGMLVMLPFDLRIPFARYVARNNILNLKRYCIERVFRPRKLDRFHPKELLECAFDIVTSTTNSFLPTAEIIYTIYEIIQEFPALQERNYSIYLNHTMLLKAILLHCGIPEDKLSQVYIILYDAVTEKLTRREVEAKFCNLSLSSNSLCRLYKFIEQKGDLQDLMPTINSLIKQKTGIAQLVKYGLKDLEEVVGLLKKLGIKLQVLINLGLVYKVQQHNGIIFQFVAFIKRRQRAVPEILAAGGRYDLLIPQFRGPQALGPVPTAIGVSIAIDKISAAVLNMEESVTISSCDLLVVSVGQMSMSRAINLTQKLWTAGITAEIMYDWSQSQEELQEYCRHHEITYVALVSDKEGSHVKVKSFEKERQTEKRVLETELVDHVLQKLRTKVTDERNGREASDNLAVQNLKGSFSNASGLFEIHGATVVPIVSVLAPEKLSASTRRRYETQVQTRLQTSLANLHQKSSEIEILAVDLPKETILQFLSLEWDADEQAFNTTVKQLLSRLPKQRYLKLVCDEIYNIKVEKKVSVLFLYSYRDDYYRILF

In the test the target is GCN2 (Homo sapiens (Human), UniProt Q9P2K8). Put plainly: GCN2 Biochemical Assay (TR-FRET, GFP-eIF2S1 substrate phosphorylation). The conditions noted are these: read-out: IC50 (GCN2 Inhibitory Activity). An outline of the steps:
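In-house GCN2 (1.6 nM 2× stock) phosphorylates GFP-eIF2S1 (50 nM 2× stock) with ATP (0.2 mM 2× stock) and tRNA, pH 7.5, 70 min at room temperature; 10-point 3.16-fold compound series. TR-FRET detection with Tb-anti-phospho antibody, 2–3 h, Ex 340/Em 490/520 nm; artifact plate spiked with phospho-substrate.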
A general note: TR-FRET usually uses a lanthanide donor and a delayed reading to cut background.
The IC50 is the concentration at which inhibition is half-maximal. For the compound `Cc1cnc(Nc2cc(C)n(C)n2)nc1-c1c[nH]c2c(N3Cc4c(NC(=O)C5CCCNC5)cccc4C3=O)cccc12` (stereo not shown) [Example 319, N-(2-(3-(2-((1,5-dimethyl-1H-pyrazol-3-yl)amino)-5-methylpyrimidin-4-yl)-1H-indol-7-yl)-1-oxoisoindolin-4-yl)piperidine-3-carboxamide], the IC50 is less than 10 nM.

For `CNc1cc(O[C@H]2CCN(CC(=O)Nc3cccc4c(-c5nc(Nc6cc(C)n(C)n6)ncc5C)c[nH]c34)C2)nc(N)n1` [Example 166, (S)-2-(3-((2-amino-6-(methylamino)pyrimidin-4-yl)oxy)pyrrolidin-1-yl)-N-(3-(2-((1,5-dimethyl-1H-pyrazol-3-yl)amino)-5-methylpyrimidin-4-yl)-1H-indol-7-yl)acetamide], the IC50 is less than 10 nM.

Consider `Cc1cnc(Nc2cc(C)n(C)n2)nc1-c1c[nH]c2c(NC(=O)CN3CC[C@H](Oc4cncc(N)n4)C3)cccc12` [Example 92], for which the IC50 was less than 10 nM.

As for `Cc1cnc(Nc2cc(C)n(C)n2)nc1-c1c[nH]c2c(NC(=O)CN3CC[C@H](Oc4cnc(NCCN(C)C)nc4)C3)cccc12` [Example 239, (S)-N-(3-(2-((1,5-dimethyl-1H-pyrazol-3-yl)amino)-5-methylpyrimidin-4-yl)-1H-indol-7-yl)-2-(3-((2-((2-(dimethylamino)ethyl)amino)pyrimidin-5-yl)oxy)pyrrolidin-1-yl)acetamide], the concentration for half-maximal inhibition (IC50) lay in the range of 10 to 100 nM.

In the case of `Cc1cnc(Nc2cc(C)n(C)n2)nc1-c1c[nH]c2c(NC(=O)CN3CC[C@H](Oc4cnc(N5CCN(C)CC5)nc4)C3)cccc12` [Example 242, (S)-N-(3-(2-((1,5-dimethyl-1H-pyrazol-3-yl)amino)-5-methylpyrimidin-4-yl)-1H-indol-7-yl)-2-(3-((2-(4-methylpiperazin-1-yl)pyrimidin-5-yl)oxy)pyrrolidin-1-yl)acetamide], the IC50 fell in the range of 10 to 100 nM.

As for `Cc1cnc(Nc2cc(C)n(C)n2)nc1-c1c[nH]c2c(NC(=O)CN3CC[C@H](Oc4ccnc(NCCCN(C)C)n4)C3)cccc12` [Example 218, (S)-N-(3-(2-((1,5-dimethyl-1H-pyrazol-3-yl)amino)-5-methylpyrimidin-4-yl)-1H-indol-7-yl)-2-(3-((2-((3-(dimethylamino)propyl)amino)pyrimidin-4-yl)oxy)pyrrolidin-1-yl)acetamide], the IC50 was less than 10 nM.

As to `COc1ncccc1-c1cccc2c1CN(c1cccc3c(-c4nc(Nc5cc(C)n(C)n5)ncc4C)c[nH]c13)C2=O` [Example 435, 2-(3-(2-((1,5-dimethyl-1H-pyrazol-3-yl)amino)-5-methylpyrimidin-4-yl)-1H-indol-7-yl)-4-(2-methoxypyridin-3-yl)isoindolin-1-one], the IC50 was less than 10 nM.

On to `Cc1cnc(Nc2cc(C)n(C)n2)nc1-c1c[nH]c2c(NC(=O)CN3CC[C@H](Oc4ccnn4C)C3)cccc12` [Example 104, (S)-N-(3-(2-((1,5-dimethyl-1H-pyrazol-3-yl)amino)-5-methylpyrimidin-4-yl)-1H-indol-7-yl)-2-(3-((1-methyl-1H-pyrazol-5-yl)oxy)pyrrolidin-1-yl)acetamide], for which the IC50 was less than 10 nM.

For the compound `Cc1cnc(Nc2cc(C)n(C)n2)nc1-c1c[nH]c2c(N3Cc4c(NC(=O)c5cccnc5)cccc4C3=O)cccc12` [Example 298, N-(2-(3-(2-((1,5-dimethyl-1H-pyrazol-3-yl)amino)-5-methylpyrimidin-4-yl)-1H-indol-7-yl)-1-oxoisoindolin-4-yl)nicotinamide], the IC50 is less than 10 nM.

`CNC(=O)c1cc(O[C@H]2CCN(CC(=O)Nc3cccc4c(-c5nc(Nc6cc(C)n(C)n6)ncc5C)c[nH]c34)C2)no1` [Example 123, (S)-3-((1-(2-((3-(2-((1,5-dimethyl-1H-pyrazol-3-yl)amino)-5-methylpyrimidin-4-yl)-1H-indol-7-yl)amino)-2-oxoethyl)pyrrolidin-3-yl)oxy)-N-methylisoxazole-5-carboxamide]: the IC50 was 10 to 100 nM.

Regarding `Cc1cnc(Nc2cc(C)n(C)n2)nc1-c1c[nH]c2c(NC(=O)CN3CCC(N4CCN(C)CC4)CC3)cccc12` [Example 36, N-(3-(2-((1,5-dimethyl-1H-pyrazol-3-yl)amino)-5-methylpyrimidin-4-yl)-1H-indol-7-yl)-2-(4-(4-methylpiperazin-1-yl)piperidin-1-yl)acetamide], the IC50 lay in the range of 100 to 1000 nM.

Take `Cc1cnc(Nc2cc(C)n(C)n2)nc1-c1c[nH]c2c(N3Cc4c(Br)cncc4C3=O)cccc12` [Example 289, 7-bromo-2-(3-(2-((1,5-dimethyl-1H-pyrazol-3-yl)amino)-5-methylpyrimidin-4-yl)-1H-indol-7-yl)-1,2-dihydro-3H-pyrrolo[3,4-c]pyridin-3-one]: the 50% inhibitory concentration (IC50) is less than 10 nM.

For `Cc1cnc(Nc2cc(C)n(C)n2)nc1-c1c[nH]c2c(N3Cc4c(cccc4-c4ccccc4-c4ccccc4)C3=O)cccc12` [Example 439, 4-([1,1′-biphenyl]-2-yl)-2-(3-(2-((1,5-dimethyl-1H-pyrazol-3-yl)amino)-5-methylpyrimidin-4-yl)-1H-indol-7-yl)isoindolin-1-one], the IC50 is greater than 1000 nM.

`Cc1cnc(Nc2cc(C)n(C)n2)nc1-c1c[nH]c2c(N3Cc4c(cccc4-c4cnn(CC5CC5)c4)C3=O)cccc12` [Example 415, 4-(1-(cyclopropylmethyl)-1H-pyrazol-4-yl)-2-(3-(2-((1,5-dimethyl-1H-pyrazol-3-yl)amino)-5-methylpyrimidin-4-yl)-1H-indol-7-yl)isoindolin-1-one]: the IC50 was less than 10 nM.

For the compound `Cc1cnc(Nc2cc(C)n(C)n2)nc1-c1c[nH]c2c(NC(=O)CN3CC[C@H](Oc4ccnc(N5CCCC5)n4)C3)cccc12` [Example 222, (S)-N-(3-(2-((1,5-dimethyl-1H-pyrazol-3-yl)amino)-5-methylpyrimidin-4-yl)-1H-indol-7-yl)-2-(3-((2-(pyrrolidin-t-yl)pyrimidin-4-yl)oxy)pyrrolidin-1-yl)acetamide], the IC50 was in the range of 10 to 100 nM.

For the compound `CCCNc1cc(O[C@H]2CCN(CC(=O)Nc3cccc4c(-c5nc(Nc6cc(C)n(C)n6)ncc5C)c[nH]c34)C2)ncn1` [Example 143, (S)-N-(3-(2-((1,5-dimethyl-1H-pyrazol-3-yl)amino)-5-methylpyrimidin-4-yl)-1H-indol-7-yl)-2-(3-((6-(propylamino)pyrimidin-4-yl)oxy)pyrrolidin-1-yl)acetamide], the 50% inhibitory concentration (IC50) was less than 10 nM.

Consider `CCCCN(CC)c1cc(O[C@H]2CCN(CC(=O)Nc3cccc4c(-c5nc(Nc6cc(C)n(C)n6)ncc5C)c[nH]c34)C2)ncn1` [Example 157, (S)-2-(3-((6-(butyl(ethyl)amino)pyrimidin-4-yl)oxy)pyrrolidin-1-yl)-N-(3-(2-((1,5-dimethyl-1H-pyrazol-3-yl)amino)-5-methylpyrimidin-4-yl)-1H-indol-7-yl)acetamide], for which the IC50 lay in the range of 10 to 100 nM.

In the case of `Cc1cnc(Nc2cc(C)n(C)n2)nc1-c1c[nH]c2c(N3Cc4c(NC(=O)[C@H]5C[C@H](N)CN5)cccc4C3=O)cccc12` [Example 331, (2R,4S)-4-amino-N-(2-(3-(2-((1,5-dimethyl-1H-pyrazol-3-yl)amino)-5-methylpyrimidin-4-yl)-1H-indol-7-yl)-1-oxoisoindolin-4-yl)pyrrolidine-2-carboxamide], the IC50 is less than 10 nM.

For `Cc1cnc(Nc2cc(C)n(C)n2)nc1-c1c[nH]c2c(NC(=O)CN3CC[C@H](Oc4cnccn4)C3)cccc12` [Example 79, (S)-N-(3-(2-((1,5-dimethyl-1H-pyrazol-3-yl)amino)-5-methylpyrimidin-4-yl)-1H-indol-7-yl)-2-(3-(pyrazin-2-yloxy)pyrrolidin-1-yl)acetamide], the IC50 was less than 10 nM.

For the compound `Cc1cnc(Nc2cc(C)n(C)n2)nc1-c1c[nH]c2c(NC(=O)CN3CC[C@H](Oc4ncc(-c5cccnc5)cn4)C3)cccc12` [Example 255, (S)-N-(3-(2-((1,5-dimethyl-1H-pyrazol-3-yl)amino)-5-methylpyrimidin-4-yl)-1H-indol-7-yl)-2-(3-((5-(pyridin-3-yl)pyrimidin-2-yl)oxy)pyrrolidin-1-yl)acetamide], the 50% inhibitory concentration (IC50) was in the range of 10 to 100 nM.

Regarding `Cc1cnc(Nc2cc(C)n(C)n2)nc1-c1c[nH]c2c(NC(=O)CN3CC[C@H](Oc4ccnc(NC5CC5)n4)C3)cccc12` [Example 207, (S)-2-(3-((2-(cyclopropylamino)pyrimidin-4-yl)oxy)pyrrolidin-1-yl)-N-(3-(2-((1,5-dimethyl-1H-pyrazol-3-yl)amino)-5-methylpyrimidin-4-yl)-1H-indol-7-yl)acetamide], the IC50 is less than 10 nM.

In the case of `Cc1cnc(Nc2cc(C)n(C)n2)nc1-c1c[nH]c2c(N3Cc4c(NC(=O)c5ccnnc5)cccc4C3=O)cccc12` [Example 302, N-(2-(3-(2-((1,5-dimethyl-1H-pyrazol-3-yl)amino)-5-methylpyrimidin-4-yl)-1H-indol-7-yl)-1-oxoisoindolin-4-yl)pyridazine-4-carboxamide], the IC50 was less than 10 nM.

`Cc1cnc(Nc2cc(C)n(C)n2)nc1-c1c[nH]c2c(N3Cc4c(NC(=O)[C@@H]5CCN(C)C5)cccc4C3=O)cccc12` [Example 333, (R)-N-(2-(3-(2-((1,5-dimethyl-1H-pyrazol-3-yl)amino)-5-methylpyrimidin-4-yl)-1H-indol-7-yl)-1-oxoisoindolin-4-yl)-1-methylpyrrolidine-3-carboxamide]: the IC50 is less than 10 nM.

In the case of `Cc1cnc(Nc2cc(C)n(C)n2)nc1-c1c[nH]c2c(N3Cc4c(-c5ccccc5)ccnc4C3=O)cccc12` [Example 493, 6-(3-(2-((1,5-dimethyl-1H-pyrazol-3-yl)amino)-5-methylpyrimidin-4-yl)-1H-indol-7-yl)-4-phenyl-5,6-dihydro-7H-pyrrolo[3,4-b]pyridin-7-one], the IC50 was less than 10 nM.

For `Cc1cnc(Nc2cc(C)n(C)n2)nc1-c1c[nH]c2c(N3Cc4c(cccc4-c4ccnc(CO)c4)C3=O)cccc12` [Example 472, 2-(3-(2-((1,5-dimethyl-1H-pyrazol-3-yl)amino)-5-methylpyrimidin-4-yl)-1H-indol-7-yl)-4-(2-(hydroxymethyl)pyridin-4-yl)isoindolin-1-one], the IC50 is less than 10 nM.
